{"source": "patent US20240139205A1", "about": "“MODULATORS OF ARALAR FOR TREATING NEUROLOGICAL DISORDERS” (Universite de Lausanne, priority 2020, published 2024)", "key": {"[1]": {"tested_on": "Cyfip^85.1/+ flies", "test": "competition for food assay (total number of social events) in Cyfip haploinsufficient flies", "format": "in vivo, Drosophila", "settings": "Cyfip^85.1/+ flies; Diazepam 50 μM in food, 1 day", "procedure": "Experiments were performed with socially experienced, 3-7 days-old male flies. Groups of eight males from the same genotype were anesthetized 24 h prior to the assay and placed in vials with food. On the day of the assay, the males were transferred without anesthesia to an empty vial and were deprived of food for 90 minutes, after which they were exposed to a food droplet and given 2 minutes to acclimate to this disturbance. The flies were then observed simultaneously for an additional 2 minutes, and the total number of social events was scored. Monitored social events were i.e. approaches, lunges, tussles, wing threat and the initiation of courtship. Of note, one interaction involving two or more flies was counted as one social event in total (Zwarts (2011), PNAS 108, 17070-17075. The behavioral assays were conducted in a behavioral chamber (25° C., 60-70% humidity) between 8 a.m. and 11 a.m. Statistics were calculated using a one-way fixed effect ANOVA model, and Kruskal Wallis test in combination with Dunn's multiple comparison test.\nExample 8. GABA augmentation fully normalizes the behavioral abnormalities of Cyfip^85.1/+ flies. GABA levels were augmented in Cyfip^85.1/+ flies in three distinct ways: flies were fed either GABA, DL-2,4-diaminobutyric acid (DABA) which is a GABA-transaminase inhibitor and/or a GABA reuptake inhibitor or the anticonvulsant valproic acid (VPA) which induces GABA release (Chateauvieux (2010), Journal of biomedicine & biotechnology 2010; Coghlan (2012), Neurosci Biobehav Rev 36, 2044-2055; Reynolds (2007), Current medicinal chemistry 14, 2799-2812). All compounds were purchased from Sigma-Aldrich and were used as described before (Kanellopoulos (2012), J Neurosci. 32(38):13111-24; Zwarts (2011), PNAS 108, 17070-17075). In brief, the drugs were dissolved as per the manufacturer's instructions and used at the following concentrations: GABA at 50 μM, DABA 100 μM, Valproic acid (VPA) at 1 mM and Diazepam at 50 μM. Compounds in solution were mixed with Formula 4-24® Instant Drosophila Medium (blue food) in water. Approximately 50-60 adult flies were placed in plastic vials containing 500 μl of each solution on top of an agar matrix and allowed to feed ad libitum before behaviour analysis. Vehicle treatment consisted of solvent added to blue food alone.\nExample 16. Drug screening to identify compounds that ameliorate social behavior deficits in flies with Cyfip haploinsufficiency. Control (w1118) or CYFIP (Cyfip^85.1/+) flies were treated, i.e. fed, with various compounds from the Prestwick Chemical Library® as described in Examples 8 and 15. All compounds were used at a concentration of 50 μM. The total number of social interactions was analyzed in a competition for food assay at various time-points (1, 2 or 5 days) of treatment with the compound or vehicle controls as described in Example 2."}, "[2]": {"tested_on": "Cyfip1+/− mice", "test": "three-chamber test (sociability and social novelty) in Cyfip1+/− mice", "format": "in vivo, mouse", "settings": "for social preference deficit (sociability index, stranger 1 vs object): acute diazepam i.p. 0.2 mg/ml at 1% of bodyweight, 30 min prior to test", "procedure": "Sociability and social novelty were evaluated using the three-chamber test previously described (Crawley (2007), Brain Pathology 17(4), 448-459). Briefly, the set-up consisted of a rectangular non-transparent Plexiglas box divided into three compartments, separated by two partitions (each compartment: 30×19×21 cm). These partitions contained a small passage in the middle (8×7 cm; that can be sealed with small guillotine doors), which allowed the mouse to transition between adjacent compartments. During the acclimation phase, mice were allowed to explore the empty central compartment for 5 min. At the start of the test, both sliding doors were closed and each of the outer compartments were equipped with a wired cage (10 cm diameter, 20 cm high), one containing an object (50 ml Falcon Tube or a glue stick) and the other containing a mouse (i.e. stranger 1). Holding cages were used to avoid inter-male fighting but allow visual and olfactory contact between mice. During the sociability phase, the guillotine doors were removed and mice could freely explore the entire set-up for 10 min. It is expected from healthy mice that more interest is shown towards another mouse compared to an object. After 10 min, mice were placed into an empty housing cage, and the holding cage containing the object was replaced by a holding cage containing a novel mouse (i.e. stranger 2). During the next phase (social memory), the stranger 1 mouse has become familiar and it is expected that healthy mice show more interest towards the stranger 2 mouse compared to the stranger 1 mouse. The guillotine doors were removed and mice were allowed to explore the set-up for another 10 min. The location of the stranger 1 and stranger 2 mice was counterbalanced between animals and the box was cleaned with 70% EtOH solution after each animal. All stranger mice used were of the same sex as the tested mouse and had never been in contact with the test mice. Mice were recorded with a camera and were tracked with Ethovision software (Noldus, Wageningen, The Netherlands). Time spent in close proximity (<2 cm) to the holding cages was recorded. Preference index was calculated as: Time stranger 1/(Time stranger 1+Time object) and Timestranger 2/(Timestranger 1+Timestranger 2) for sociability and social memory/social novelty, respectively.\nDiazepam, a GABA-A positive modulator, was purchased from Roche (Basel, Switzerland) (diazepam already dissolved in saline at a concentration of 5 mg/ml). Diazepam was further diluted in saline and adjusted to the dose of 0.2 mg/ml. Mice were first tested in the three-chamber test in control conditions. 72 h afterwards, all mice were administered intraperitoneally with diazepam at 1% of bodyweight 30 min prior to re-testing. […]"}, "[3]": {"tested_on": "WT mice", "test": "three-chamber test (sociability) in WT mice", "format": "in vivo, mouse", "settings": "acute diazepam i.p. 0.2 mg/ml at 1% of bodyweight, 30 min prior to test", "procedure": "Sociability and social novelty were evaluated using the three-chamber test previously described (Crawley (2007), Brain Pathology 17(4), 448-459). Briefly, the set-up consisted of a rectangular non-transparent Plexiglas box divided into three compartments, separated by two partitions (each compartment: 30×19×21 cm). These partitions contained a small passage in the middle (8×7 cm; that can be sealed with small guillotine doors), which allowed the mouse to transition between adjacent compartments. During the acclimation phase, mice were allowed to explore the empty central compartment for 5 min. At the start of the test, both sliding doors were closed and each of the outer compartments were equipped with a wired cage (10 cm diameter, 20 cm high), one containing an object (50 ml Falcon Tube or a glue stick) and the other containing a mouse (i.e. stranger 1). Holding cages were used to avoid inter-male fighting but allow visual and olfactory contact between mice. […] Mice were recorded with a camera and were tracked with Ethovision software (Noldus, Wageningen, The Netherlands). Time spent in close proximity (<2 cm) to the holding cages was recorded. Preference index was calculated as: Time stranger 1/(Time stranger 1+Time object) and Timestranger 2/(Timestranger 1+Timestranger 2) for sociability and social memory/social novelty, respectively. […]"}}, "data": [{"molecule": "CN1C(=O)CN=C(c2ccccc2)c2cc(Cl)ccc21", "note": "[diazepam]", "values": [{"measurement": "social deficits (social events)", "setting": "[1]", "result": "restored the social deficits"}, {"measurement": "increase in social preference after treatment (within-subject, control vs diazepam-treated)", "setting": "[2]; acute diazepam i.p.", "result": "approximately 50%"}, {"measurement": "social preference deficit (sociability index, stranger 1 vs object)", "setting": "[2]", "result": "rescued the social preference deficit"}, {"measurement": "social preference deficit (sociability index, stranger 1 vs object)", "setting": "[2]; listed as Diazepam", "result": "restores deficits in social behavior"}, {"measurement": "preference for the novel mouse (social novelty index)", "setting": "[2]; acute diazepam i.p., genotype difference not statistically significant", "result": "slightly increase"}, {"measurement": "social preference (sociability index)", "setting": "[3]", "result": "slight decrease in social preference"}]}]}
